From paper PMC9564337, “Development of a Neurotensin-Derived ^68Ga-Labeled PET Ligand with High In Vivo Stability for Imaging of NTS1 Receptor-Expressing Tumors” (Cancers, 2022)
Read-outs that look alike come from different tables or passages of the source.

What was measured:
in vitro = in vitro ADME; settings: human; for remaining at 1 h, 100 µM: pH 7.4, % Intact Peptide in Plasma after 1 h; for remaining at 6 h, 100 µM: pH 7.4, % Intact Peptide in Plasma after 6 h; for remaining at 24 h, 100 µM: pH 7.4, % Intact Peptide in Plasma after 24 h; for remaining at 48 h, 100 µM: pH 7.4, % Intact Peptide in Plasma after 48 h; for % Intact Peptide in Plasma after 1 h / % Intact Peptide in Plasma after 6 h / % Intact Peptide in Plasma after 24 h / % Intact Peptide in Plasma after 48 h: 100 µM, pH 7.4
Experimental: The concentration of the peptides in plasma/PBS (1:2 v/v) was 80 and 4 μM (recovery determination) or 100 μM (stability tests). Data analysis was based on UV detection at 220 nm (8, 9, 11, 12, 14-18, 21-23, 38-49, and 54-57) or fluorescence detection at 275/305 nm (19 and 20). Reference samples, representing 100% recovery, were prepared in duplicate (8, 9, 11, 14-16, and 19-21) or quadruplicate (12, 17, 18, 22, 23, 38-49, and 54-57). Recovery ratios were obtained by dividing the recovery of the peptide by the recovery of IS for each individual sample (n = 3-5). The obtained recoveries and the recovery ratios are summarized in Table S2, Supplementary Materials. […] Instead, the recovery ratios determined for the previously reported, structurally closely related peptide […] [40] were used for calculating the amount of remaining intact peptide in plasma.

hNTS1R = target: T1, hNTS1R (Homo sapiens, UniProt P30989); assay: radioligand competition binding with [3H]UR-MK300 at intact HT-29 cells
T1 construct: intact HT-29 colon carcinoma cells expressing the hNTS1R; host or cells: HT-29 human colon carcinoma cells
T1 sequence (P30989 whole entry): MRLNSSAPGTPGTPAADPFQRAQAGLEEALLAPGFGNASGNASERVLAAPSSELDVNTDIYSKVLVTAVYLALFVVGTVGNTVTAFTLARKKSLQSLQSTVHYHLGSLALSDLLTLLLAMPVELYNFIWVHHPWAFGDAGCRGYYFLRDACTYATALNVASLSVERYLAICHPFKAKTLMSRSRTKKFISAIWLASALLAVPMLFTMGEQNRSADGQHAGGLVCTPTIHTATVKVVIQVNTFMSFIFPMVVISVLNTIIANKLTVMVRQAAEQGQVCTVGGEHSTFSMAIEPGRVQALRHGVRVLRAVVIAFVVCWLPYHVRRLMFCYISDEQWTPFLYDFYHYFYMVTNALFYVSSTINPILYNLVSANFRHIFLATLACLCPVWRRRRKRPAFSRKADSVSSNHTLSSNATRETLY
Description: Specific binding data (obtained by subtracting unspecific binding from total binding) were normalized (100% = specifically bound radioligand in the absence of competitor) and plotted over log(concentration of competitor) followed by a four-parameter logistic fit (SigmaPlot 12.5, Systat Software, San José, CA, USA) (note: in the case of 40, the lower curve plateau of the sigmoidal fit was constrained to >0). […] The Ki values from individual experiments were transformed to pKi values, followed by the calculation of mean pKi values ± SD.

[1] = [3H]UR-MK300 c = 1 nM, HT-29 cells, 23 °C, read-out: Ki [nM] NTS1R (converted)
[2] = [3H]UR-MK300 c = 1 nM, HT-29 cells, 23 °C, read-out: pKi ± SD NTS1R (converted)

| Structure (SMILES) | remaining at 1 h, 100 µM (in vitro; plasma) | remaining at 6 h, 100 µM (in vitro; plasma) | remaining at 24 h, 100 µM (in vitro; plasma) | remaining at 48 h, 100 µM (in vitro; plasma) | Ki (hNTS1R; [1]) | Ki (hNTS1R; [2]) | further results |
| --- | --- | --- | --- | --- | --- | --- | --- |
| CC[C@H](C)[C@H](NC(=O)[C@H](Cc1ccc(O)cc1)NC(=O)[C@@H]1CCCN1C(=O)[C@H](CCCNC(=N)NC(=O)NCCCCN)NC(=O)[C@H](CCCNC(=N)N)NC)C(=O)N[C@@H](CC(C)C)C(=O)O [Compound 9] | 99 ± 2% | 57 ± 2% | 3 ± 0.1% | 1.4 ± 0.3% | – | – | – |
| CN[C@@H](CCCNC(=N)NC(=O)NCCOCCOCCN)C(=O)N[C@@H](CCCNC(=N)N)C(=O)N1CCC[C@H]1C(=O)N[C@@H](Cc1ccc(O)cc1)C(=O)N[C@H](C(=O)N[C@@H](CC(C)C)C(=O)O)C(C)(C)C [Compound 12] | 97 ± 3% | 97 ± 3% | 94 ± 3% | 91 ± 3% | 2.7 nM | 2.45 nM | – |
| CC[C@H](C)[C@H](NC(=O)[C@H](Cc1ccc(O)cc1)NC(=O)[C@@H]1CCCN1C(=O)[C@H](CCCNC(=N)NC(=O)NCCCCNC(=O)CN1CCN(CC(=O)O)CCN(CC(=O)O)CCN(CC(=O)O)CC1)NC(=O)[C@H](CCCNC(=N)N)NC)C(=O)N[C@@H](CC(C)C)C(=O)O [Compound 15] | – | – | – | – | – | – | % Intact Peptide in Plasma after 1 h (in vitro): 78 ± 1%; % Intact Peptide in Plasma after 6 h (in vitro): 8.3 ± 0.4% |
| CN[C@@H](CCCNC(=N)NC(=O)NCCOCCOCCNC(=O)CN1CCN(CC(=O)O)CCN(CC(=O)O)CCN(CC(=O)O)CC1)C(=O)N[C@@H](CCCNC(=N)N)C(=O)N1CCC[C@H]1C(=O)N[C@@H](Cc1ccc(O)cc1)C(=O)N[C@H](C(=O)N[C@@H](CC(C)C)C(=O)O)C(C)(C)C [Compound 18] | – | 99 ± 1% | – | – | 36 nM | – | % Intact Peptide in Plasma after 24 h (in vitro): 94 ± 1%; % Intact Peptide in Plasma after 48 h (in vitro): 86 ± 1% |
| CC[C@H](C)[C@H](NC(=O)[C@H](Cc1ccc(O)cc1)NC(=O)[C@@H]1CCCN1C(=O)[C@H](CCCNC(=N)NC(=O)NCCCCNC(=O)CN1CCN(CC(=O)O)CCN(CC(=O)O)CCN(CC(=O)O)CC1)NC(=O)[C@H](CCCNC(=N)N)NC)C(=O)N[C@@H](CC(C)C)C(=O)O [Compound 20] | – | – | 15 ± 1% | 4.6 ± 0.1% | – | – | % Intact Peptide in Plasma after 1 h (in vitro): >99%; % Intact Peptide in Plasma after 6 h (in vitro): 77 ± 2% |
| CN[C@@H](CCCNC(N)=NC(=O)NCCOCCOCCNC(=O)CN1CCN(CC(=O)O)CCN(CC(=O)O)CCN(CC(=O)O)CC1)C(=O)N[C@@H](CCCNC(=N)N)C(=O)N1CCC[C@H]1C(=O)N[C@@H](Cc1ccc(O)cc1)C(=O)N[C@H](C(=O)N[C@@H](CC(C)C)C(=O)O)C(C)(C)C [Compound 23] | > 99% | – | – | – | 7.5 nM | – | pKi ± SD NTS1R (hNTS1R; [3H]UR-MK300 c = 1 nM, HT-29 cells, 23 °C): 8.13 ± 0.11; % Intact Peptide in Plasma after 6 h (in vitro): 98 ± 6%; % Intact Peptide in Plasma after 24 h (in vitro): 46 ± 2%; % Intact Peptide in Plasma after 48 h (in vitro): 7.8 ± 0.6% |
| CN[C@@H](CCCNC(N)=NC(=O)NCCCCNC(=O)[C@H](N)Cc1ccc(-c2ccc(F)cc2)cc1)C(=O)N[C@@H](CCCNC(=N)N)C(=O)N1CCC[C@H]1C(=O)N[C@@H](Cc1ccc(O)cc1)C(=O)N[C@H](C(=O)N[C@@H](CC(C)C)C(=O)O)C(C)(C)C [Compound 25] | – | – | – | – | 4.3 nM | 4.27 nM | – |
| CN[C@@H](CCCNC(N)=NC(=O)NCCOCCOCCNC(=O)[C@H](N)Cc1ccc(-c2ccc(F)cc2)cc1)C(=O)N[C@@H](CCCNC(=N)N)C(=O)N1CCC[C@H]1C(=O)N[C@@H](Cc1ccc(O)cc1)C(=O)N[C@H](C(=O)N[C@@H](CC(C)C)C(=O)O)C(C)(C)C [Compound 26] | – | – | – | – | 3.1 nM | 3.02 nM | – |
| CN[C@@H](CCCNC(N)=NC(=O)NCCOCCOCCNC(=O)[C@@H](Cc1ccc(-c2ccc(F)cc2)cc1)NC(=O)CCCCCNC(=O)CN1CCN(CC(=O)O)CCN(CC(=O)O)CCN(CC(=O)O)CC1)C(=O)N[C@@H](CCCNC(=N)N)C(=O)N1CCC[C@H]1C(=O)N[C@@H](Cc1ccc(O)cc1)C(=O)N[C@H](C(=O)N[C@@H](CC(C)C)C(=O)O)C(C)(C)C [Compound 32] | – | – | – | – | 12 nM | 10.7 nM | – |
| CN[C@@H](CCCNC(N)=NC(=O)NCCOCCOCCNC(=O)[C@@H](Cc1ccc(-c2ccc(F)cc2)cc1)NC(=O)CCCCCNC(=O)CN1CCN(CC(=O)O)CCN(CC(=O)O)CCN(CC(=O)O)CC1)C(=O)N[C@@H](CCCNC(=N)N)C(=O)N1CCC[C@H]1C(=O)N[C@@H](Cc1ccc(O)cc1)C(=O)N[C@H](C(=O)N[C@@H](CC(C)C)C(=O)O)C(C)(C)C [Compound 33] | – | – | – | – | – | – | increase in NTS1R affinity upon insertion of Ga3+ (hNTS1R; versus the precursor with empty DOTA chelator (32 or 54)): 4.8 fold |
| CN[C@@H](CCCNC(N)=NC(=O)NCCCCNC(=O)[C@@H](Cc1ccc(-c2ccc(F)cc2)cc1)NC(=O)CN1CCN(CC(=O)O)CCN(CC(=O)O)CCN(CC(=O)O)CC1)C(=O)N[C@@H](CCCNC(=N)N)C(=O)N1CCC[C@H]1C(=O)N[C@@H](Cc1ccc(O)cc1)C(=O)N[C@H](C(=O)N[C@@H](CC(C)C)C(=O)O)C(C)(C)C [Compound 34] | – | – | – | – | 10 nM | 10.2 nM | – |
| CN[C@@H](CCCNC(N)=NC(=O)NCCOCCOCCNC(=O)[C@@H](Cc1ccc(-c2ccc(F)cc2)cc1)NC(=O)CN1CCN(CC(=O)O)CCN(CC(=O)O)CCN(CC(=O)O)CC1)C(=O)N[C@@H](CCCNC(=N)N)C(=O)N1CCC[C@H]1C(=O)N[C@@H](Cc1ccc(O)cc1)C(=O)N[C@H](C(=O)N[C@@H](CC(C)C)C(=O)O)C(C)(C)C [Compound 35] | – | – | – | – | 14 nM | 13.5 nM | – |
| CC[C@@H](C)[C@H](NC(=O)[C@H](Cc1ccc(O)cc1)NC(=O)[C@@H]1CCCN1C(=O)[C@H](CCCNC(=N)N)NC(=O)[C@H](CCCNC(=N)N)NC)C(=O)N[C@@H](CC(C)C)C(=O)O [Compound 38] | 92 ± 1% | 87 ± 1% | 70 ± 1% | 52 ± 1% | 4.8 nM | 4.68 nM | – |
| CCC(CC)(NC(=O)[C@H](Cc1ccc(O)cc1)NC(=O)[C@@H]1CCCN1C(=O)[C@H](CCCNC(=N)N)NC(=O)[C@H](CCCNC(=N)N)NC)C(=O)N[C@@H](CC(C)C)C(=O)O [Compound 39] | 93 ± 1% | 94 ± 1% | 93 ± 1% | 93 ± 1% | > 1000 nM | > 1000 nM | – |
| CN[C@@H](CCCNC(=N)N)C(=O)N[C@@H](CCCNC(=N)N)C(=O)N1CCC[C@H]1C(=O)N[C@@H](Cc1ccc(O)cc1)C(=O)N[C@H](C(=O)N[C@@H](CC(C)C)C(=O)O)C1CC1 [Compound 40] | 88 ± 1% | 58 ± 1% | < 1% | < 1% | 9.6 nM | 8.91 nM | – |
| CN[C@@H](CCCNC(=N)N)C(=O)N[C@@H](CCCNC(=N)N)C(=O)N1CCC[C@H]1C(=O)N[C@@H](Cc1ccc(O)cc1)C(=O)N[C@@H](CC1CC1)C(=O)N[C@@H](CC(C)C)C(=O)O [Compound 41] | 92 ± 1% | 74 ± 1% | 15 ± 1% | < 1% | 5 nM | – | – |
| CC[C@H](C)[C@H](NC(=O)[C@H](Cc1ccc(O)cc1)NC(=O)[C@@H]1CCCN1C(=O)[C@H](CCCNC(=N)N)NC(=O)[C@H](CCCNC(=N)N)NC)C(=O)N[C@@](C)(CC(C)C)C(=O)O [Compound 47] | 89 ± 1% | 88 ± 1% | 81 ± 1% | 73 ± 1% | – | – | – |
| CC[C@H](C)[C@H](NC(=O)[C@@H](NC(=O)[C@@H]1CCCN1C(=O)[C@H](CCCNC(=N)N)NC(=O)[C@H](CCCNC(=N)N)NC)C(C)(C)c1ccc(O)cc1)C(=O)N[C@@H](CC(C)C)C(=O)O [Compound 48] | 90 ± 4% | 97 ± 6% | 92 ± 1% | 92 ± 1% | – | – | – |
| CC[C@H](C)[C@H](NC(=O)[C@H](NC(=O)[C@@H]1CCCN1C(=O)[C@H](CCCNC(=N)N)NC(=O)[C@H](CCCNC(=N)N)NC)C(C)(C)c1ccc(O)cc1)C(=O)N[C@@H](CC(C)C)C(=O)O [Compound 49] | 96 ± 2% | 96 ± 1% | 94 ± 5% | 95 ± 2% | – | – | – |
| CN[C@@H](CCCNC(=N)NC(=O)NCCCCNC(=O)CN1CCN(CC(=O)O)CCN(CC(=O)O)CCN(CC(=O)O)CC1)C(=O)N[C@@H](CCCNC(=N)N)C(=O)N1CCC[C@H]1C(=O)N[C@H](C(=O)N[C@H](C(=O)N[C@@H](CC(C)C)C(=O)O)C(C)(C)C)C(C)(C)c1ccc(O)cc1 [Compound 55] | – | – | – | – | 85 nM | 79.4 nM | – |
| CC[C@H](C)[C@H](NC(=O)[C@@H](NC(=O)[C@@H]1CCCN1C(=O)[C@H](CCCNC(=N)N)NC(=O)[C@H](CCCNC(N)=NC(=O)NCCCCNC(=O)CN1CCN(CC(=O)O)CCN(CC(=O)O)CCN(CC(=O)O)CC1)NC)C(C)(C)c1ccc(O)cc1)C(=O)N[C@@H](CC(C)C)C(=O)O [Compound 56] | > 99% | > 99% | 77 ± 1% | < 1% | – | – | half-life at 100 µM (in vitro; plasma): > 24 h |
